This note sets out measurements from US20250243160A1, “INDOLE DERIVATIVES FOR TARGETING AUTOPHAGY” (Automera PTE. LTD, priority 2024, published 2025).

Sequence of Recombinant p62 protein (Q13501 whole entry, species assumed): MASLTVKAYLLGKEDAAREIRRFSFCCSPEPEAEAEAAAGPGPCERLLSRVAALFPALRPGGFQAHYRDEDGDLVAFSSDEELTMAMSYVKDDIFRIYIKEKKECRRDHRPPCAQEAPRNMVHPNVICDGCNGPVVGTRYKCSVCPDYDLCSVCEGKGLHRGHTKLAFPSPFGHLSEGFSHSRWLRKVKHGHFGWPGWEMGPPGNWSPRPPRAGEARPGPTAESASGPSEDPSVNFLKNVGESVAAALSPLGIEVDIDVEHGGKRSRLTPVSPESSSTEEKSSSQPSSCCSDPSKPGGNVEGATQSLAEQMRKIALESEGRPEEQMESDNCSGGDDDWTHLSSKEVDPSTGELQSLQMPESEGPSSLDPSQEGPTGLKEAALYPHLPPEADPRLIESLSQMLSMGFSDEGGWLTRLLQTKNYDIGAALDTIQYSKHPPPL

The first assay addresses Recombinant p62 protein (Homo sapiens, UniProt Q13501). The experiment in a line: Surface plasmon resonance (SPR) compound binding to p62. To be noted: 15° C.
In the case of `OCCNCc1cccc2c1ccn2Cc1ccccc1` [Compound 1, 2-(((1-benzyl-1H-indol-4-yl)methyl)amino)ethan-1-ol], the receptor occupancy at 100 µM lay within 30 to 70%.
In the case of `OCCNCc1cc(F)cc2c1ccn2Cc1ccc(Cl)cc1` [Compound 45, 2-(((1-(4-chlorobenzyl)-6-fluoro-1H-indol-4-yl)methyl)amino)ethan-1-ol], the receptor occupancy at 100 µM was 30 to 70%.
Same read-out and setting: as for `OCCNCc1cc(F)cc2c1ccn2Cc1ccc(F)cc1` [Compound 44], the figure is greater than 70%.

The subject of the next assay is LC3 protein. The assay can be described thus: LC3 lipidation (LC3-II/LC3-I) assay by Western blot in HeLa cells. The class given is cell-based. The conditions noted are these: 24 hours treatment, relative to vehicle control (DMSO). The procedure:
HeLa cells were seeded in 6-well plates (700,000 cells) and allowed to adhere overnight. Media was replaced one hour before administering either vehicle (DMSO) or test compounds. After 24 hours of treatment, the media was discarded, and cells were rinsed once with ice-cold 1×PBS before detached from plates with ice-cold RIPA Lysis and Extraction Buffer (Thermo Fisher Scientific) which was supplemented with protease and phosphatase inhibitors. The resulting cell suspensions were transferred to pre-chilled microcentrifuge tubes, incubated on ice for 20 min with intermittent mixing and then centrifuged at 12,000 rpm for 20 min at 4° C. The supernatants were then aspirated slowly and transferred into new tubes kept on ice. The protein concentration in the samples was determined using BCA kit (Thermo Fisher Scientific) as per manufacturer's instructions.
For the p62 oligomerization and LC3 lipidation assays, cell lysates were prepared using RIPA buffer supplemented with 2% SDS and benzonase (Sigma). The lysates were then combined with 4× Laemmli protein sample buffer (Bio-Rad), heated at 70° C. for 10 min and subjected to a brief centrifugation of 10-15 seconds.
For p62 oligomerization and LC3 lipidation assays, lysates containing 30 μg of protein and for BRD4 and FKBP12(F36V) degradation assays, lysates containing 20 μg of protein, were loaded slowly into the wells of 4-20% gradient Tris-glycine gels (Bio-Rad). The gels were run at 100V until completion and transferred onto PVDF membranes. Membranes were blocked using 5% milk in TBS-Tween (0.1%) buffer at room temperature for 1 hour. The membranes were incubated with primary antibody in 5% milk-TBST with shaking, overnight at 4° C. The primary antibodies used were: p62 (Novus Biologicals 2C11, H00008878-MO1), LC3A/B (Cell Signalling Technology D3U4C, 12741S), FKBP12 (Abcam ab24373), BRD4 (Cell Signalling Technology E2A7X, 13440S), GAPDH (Cell Signalling Technology D4C6R, 97166S), and β-Actin (Proteintech 66009-1-Ig). Following primary antibody incubation, membranes were washed thrice with TBST 10 min before and after incubation with secondary-HRP conjugated antibody in 5% milk-TBST for 1 hour at room temperature. The secondary antibodies used were: Anti-Mouse IgG HRP Conjugate (Promega W4021B) and Anti-Rabbit IgG HRP Conjugate (Promega W4011). For the p62 oligomerization assay, the total protein levels were assessed using Ponceau staining (Thermo Fisher Scientific) of PVDF membrane as per recommendation by manufacturer's guidelines.
Imaging was acquired using SuperSignal™ West Pico PLUS Chemiluminescent Substrate (Thermo Fisher Scientific) with iBright Invitrogen FL100 imaging system. Band signal intensity, reflective of protein concentrations, were quantified using Invitrogen™ iBright™ Analysis and Image J software.
HeLa cells were treated with compounds for 24 hours to evaluate the effect of these compounds on LC3-II/LC3-I levels, a measure of autophagy activation. The changes in levels of LC3-I, LC3-II and […] (loading control) were assessed by Western blotting, as described in experimental procedures. The fold increase of LC3-II/LC3-I levels induced by compound treatment relative to vehicle control (DMSO) was determined and summarized in Table 9. Specifically, FIGS. 3A-C show Western blot images and their corresponding quantification showing the lipidation levels of LC3 protein (LC3-II/LC3-I) by 24 hours compound treatments at listed concentrations, relative to vehicle control (DMSO) in HeLa cells.
For `OCCNCc1cccc2c1ccn2Cc1ccccc1` [Compound 1, 2-(((1-benzyl-1H-indol-4-yl)methyl)amino)ethan-1-ol], the “LC3 lipidation (fold increase of LC3-II/LC3-I levels)” value is “+ (<2-fold change in LC3-II/LC3-I relative to DMSO control)”.
The same measure, in the same setting: the same measure for `OCCNCc1cc(F)cc2c1ccn2Cc1ccc(Cl)cc1` [Compound 45, 2-(((1-(4-chlorobenzyl)-6-fluoro-1H-indol-4-yl)methyl)amino)ethan-1-ol]: “++ (>2-fold change in LC3-II/LC3-I relative to DMSO control)”.
Same read-out and setting: as for `OCCNCc1cc(F)cc2c1ccn2Cc1ccc(F)cc1` [Compound 44], the entry is “++ (>2-fold change in LC3-II/LC3-I relative to DMSO control)”.
